Measurements reported in a melting point compilation (Tetko et al.; mined from patent text by program, amines drawn as free bases though some values may be those of a salt).

| melting point [°C] | SMILES |
| --- | --- |
| 66 to 69 | OC1CCC2(CC1)CCC(CCc1ccoc1)CC2 (stereo unspecified) |
| 175 to 176 | O=c1[nH]c2ccccc2n1C1CCN(CC(O)COc2ccc(F)cc2)CC1 (stereo unspecified) |
| 183 to 186 | COc1ccc(N2CCN(c3c(C)c4c(c(C(C)O)c3C)OC(C)(C)C4)CC2)cc1 (stereo unspecified) |
| 209 to 211 | CCc1nc2c(N)nc3cc(CCCNC(C)=O)ccc3c2n1CC1CCOCC1 |
| 156 to 158 | CC(C)N=C(NC#N)Nc1cc(Cl)cc(Cl)c1 |
| 192 to 193 | CC1SCCCNC1=O (stereo unspecified) |
| > 300 | CN1C=C2C=C(S)N=CN2N1 |
| 271 to 273 | COC(=O)c1ccc2[nH]cc(C(=O)c3ccccc3)c2c1 |
| 172 to 174 | CNC(=O)c1ccccc1Nc1nc(Nc2ccc3c(c2)N(C)CCN(CCOC)C3)ncc1Cl |
| 143 to 147 | Cc1c(SCCCSc2ccc3ncc([N+](=O)[O-])n3n2)ccnc1CSc1ncccn1 |
| 82 to 84 | CNc1ccc(CCc2ccc(OC)c(OC)c2)cc1 |
| 148 to 150 | CN1CCN(c2cc(Cl)cc3c2c(=O)n(Cc2cccc(F)c2)c(=O)n3Cc2ccccc2)CC1 |
| 151 to 152 | O=C(CCCNC(=O)c1ccc(OC(F)(F)F)cc1)CCCNC(=O)c1ccc(OC(F)(F)F)cc1 |
| 163 to 165 | N#CN1CCC2(CC1)CN(c1ccccc1[N+](=O)[O-])c1cc(Cl)ccc12 |
| 238 to 240 | Oc1ccc2c(c1)COc1c-2cc2ccc(O)cc2c1-c1cc(F)cc(F)c1 |
| 123 to 124 | OC1CC2(CCCC2)Oc2ccc(Br)cc21 (stereo unspecified) |
| 174 to 176 | O=C(C=Cc1cccc([N+](=O)[O-])c1)N1CCc2c([nH]c3ccccc23)C1c1ccc2c(c1)CCO2 (stereo unspecified) |
| 209 to 211 | Cc1c(/C=C/C(=O)c2ccccc2)ncn1C(c1ccccc1)(c1ccccc1)c1ccccc1 |
| 37 | BrC1COCOCC1Br (stereo unspecified) |
| 99 | Nc1cc(F)ccc1[N+](=O)[O-] |
| 55 to 56 | Cc1noc(C(C)c2ccc(-c3ccccc3)c(F)c2)n1 (stereo unspecified) |
| 119 to 120 | CN(Cc1ccc([N+](=O)[O-])cc1)C1CCN(c2ccc([N+](=O)[O-])cc2)CC1 |
| 109 to 110 | CC(C)(C)c1ccccc1N1CCN(C(=O)CCC#N)CC1 |
| 120 to 121 | N#Cc1cccc(N2CCc3cc(Cl)ccc32)c1 |
| 104 to 105 | CCCOc1ccccc1-c1nc(C=O)c[nH]1 |
| 83 to 84 | CCOC(=O)CC(=O)CC(O)/C=C/c1c(-c2ccccc2)ccnc1C (stereo unspecified) |

| melting point [°C] | SMILES |
| --- | --- |
| 258 | N#CC=Cc1ccc(C=Cc2ccc(Br)cc2)cc1 |
| 181 to 182 | Cc1c(-c2ccccc2)oc2c(C(=O)NCCCl)cccc2c1=O |
| 172 to 174 | NC(=O)Nc1ccc2c(c1)C(CN1CCC(c3ccc(F)cc3)CC1)CC2 (stereo unspecified) |
| 140 | O=c1c(-c2ccccc2)ccc2n1CCc1ccccc1-2 |
| 174 to 176 | CCOC(=O)C(NC=O)C(=O)Nc1ccc(Br)cc1C (stereo unspecified) |
| 204 | CNc1c(OC)cc(Cc2cnc(N)nc2N)cc1OC |
| 102 to 103 | O=C(N[C@@H](Cc1ccccc1)[C@H]1CO1)OCc1ccccc1 |
| 196 to 198 | CCOC(=O)C(N)=NOC(=O)c1ccc(F)cc1 |
| 158 to 159 | N#Cc1ccc2c(c1)N=Cc1ccccc1O2 |
| 116 to 118 | CCOC(=O)CSc1cc(NS(=O)(=O)c2cccs2)c2ccccc2c1O |
| 297 to 299 | N#CC(C#N)=C1Sc2nc3cc(Cl)c([N+](=O)[O-])cc3nc2S1 |
| 230 to 231 | CS(=O)(=O)N(CCO)C1CCC(Nc2nccc(-n3nnc4ccccc43)n2)CC1 (stereo unspecified) |
| 84 to 86 | Cc1noc(NS(=O)(=O)c2ccccc2Br)c1Br |
| 94 to 95 | COC(=O)NNC(=O)Cc1ccccc1 |
| 105 to 107 | CC(C)(C)c1cc(C#N)c(O)c(Br)c1Cl |
| 66 to 68 | CCCCCOC(=O)C1CC(=O)NN1c1ncccc1Cl (stereo unspecified) |
| 154 to 157 | CC(C)(C)C1CC(=CO)C(Cl)=C(C=O)C1 (stereo unspecified) |
| 115 to 116 | CCCc1c(OCC(O)CSc2ccc(C(=O)CCC(=O)O)cc2)ccc(C(C)=O)c1O (stereo unspecified) |
| 97 to 98 | COC(=O)CCc1ccc(OCc2sc3ccccc3c2Cl)cc1 |
| 237 to 239 | Nc1ncnc2c1ncn2[C@@H]1CO[C@H](CO)[C@@H](O)C1 |
| 190 to 192 | COC(=O)c1ccc2c(c1)[C@@H](N1CCCC1=O)[C@H](O)C(C)(C)O2 (relative stereo) |
| 127 to 130 | CC(=O)N(CCCCn1ccnc1)C1=Nc2cccc3cccc1c23 |
| 188 to 189 | CCC1NC(c2cc(Cl)nc(Cl)c2)=NC(=O)C1C(=O)OC (stereo unspecified) |
| 72 to 73 | Cc1cc(C)c2c(c1C)NC(C)(CCCC(C)CCCC(C)CCCC(C)C)CC2 (stereo unspecified) |
| 59 to 61 | CCOC(=O)/C(F)=C/c1ccc(Br)cc1 |
| 108 to 110 | CCCCCCCCCCCCSc1cc2nc(C(CC)CCCC)oc2cc1[N+](=O)[O-] (stereo unspecified) |

| melting point [°C] | SMILES |
| --- | --- |
| 295 to 300 | Cn1c(=O)[nH]c(=O)c2c1ncn2CC(=O)Nc1ccc(C2CCCC2)cc1 |
| 160 to 162 | CSc1ccc2c(c1)CCN2C(=O)Nc1cccnc1 |
| 162 to 163 | C=CCSc1cc(C(=O)O)cc(N=Nc2cc(C(=O)O)cc(SCC=C)c2C(=O)c2ccccc2)c1C(=O)c1ccccc1 |
| 140 to 143 | CN(C)C1CCN(S(=O)(=O)c2cc(C#N)ccc2Sc2cc(Cl)ccc2Cl)CC1 |
| 147 to 149 | Cc1cc(-n2nc(C(F)(F)F)cc2-c2ccc(-c3cscn3)cc2)ccc1S(C)(=O)=O |
| 72 to 73 | CC(C)(C)OC(=O)N1C[C@@H](O)C[C@H]1C(=O)OCc1ccccc1 |
| 223 to 225 | CNC(=O)c1c(Nc2ccccc2[N+](=O)[O-])c(C)nn1C |
| 60 | COc1cc(C(=O)NS(=O)(=O)c2ccccc2C)ccc1Cc1cn(C(C)C)c2ccc(CCCC(=O)N(C)C)cc12 |
| 170 to 171 | CCc1cnc(N2CCN(C(=O)c3ccc(CNc4ncnc5ccccc45)cc3)CC2)nc1 |
| 218 to 220 | CCCCc1nn(-c2ccc([N+](=O)[O-])cc2C(F)(F)F)c(=O)n1Cc1ccc(-c2ccccc2S(N)(=O)=O)cc1 |
| 55 to 56 | CCc1nc(-c2ccc(OCCCN3CCN(C)CC3)cc2)no1 |
| 95 to 97 | COc1ccc(-n2nc(CCN)cc2-c2ccc(Cl)cc2)cc1 |
| 64 to 66 | OCCn1cc(Br)c(Br)n1 |
| 123 to 126 | CCc1cccc2c1CCNC2=O |
| 212 to 214 | CSc1nccc(CC(=O)c2ccc(F)cc2)n1 |
| 130 to 132 | CCCCCS(=O)(=O)NC(=O)/C=C/c1cc(OCCCC)nn1Cc1ccc(C(F)(F)F)cc1Cl |
| 98 to 105 | N#Cc1ccc(C=CCc2ccc(C#N)cc2)cc1 |
| 90 to 95 | O=[N+]([O-])c1cccc(/C=C/c2nc(C3CC3)cs2)c1 |
| 98 to 100 | Cc1c(O)ccc2c1OCC(c1ccc(Cl)cc1)C2 (stereo unspecified) |
| > 260 | Cc1c[nH]c(=O)c2c3c([nH]c12)CCC(=O)C3 |
| 144 to 145 | OCCC1(CCO)c2ccccc2Oc2ccccc21 |
| 104 to 105 | CN(CCc1ccc([N+](=O)[O-])cc1)Cc1ccc2cc([N+](=O)[O-])ccc2n1 |
| 192 to 193 | CCOC(=O)C1CCCCN1C(=O)[C@H](CCCNC(=N)N)NS(=O)(=O)c1ccc2cc(OC)ccc2c1 (stereo partly specified) |
| 158 to 159 | CC(C)(C)OC(=O)N[C@@H](CCC(N)=O)C(=O)N1CCN(Cc2ccccc2)CC1 |
| 123 to 125 | O=[N+]([O-])c1ccc(Sc2nccn2-c2ccccc2)cc1 |
| 178 to 179 | CC(C)(C)c1cc(NC(=O)Nc2ccc(Cl)c(Cl)c2)[nH]n1 |

| melting point [°C] | SMILES |
| --- | --- |
| 103 to 106 | COC(=O)CC(N)c1cc2ccccc2nc1Cl (stereo unspecified) |
| 69 to 70 | COc1cccc(CN(C)C)c1SCc1ccccc1 |
| 118 | Cc1ccc(C2=C(c3ccc(S(C)(=O)=O)cc3)CCC2)cc1 |
| 105 | N#CN=C(N)NCCCCNC(=O)C1(NC(=O)CCCC(=O)O)Cc2ccccc2C1 |
| 253 to 255 | Cc1cc(-c2ccccc2)nc2nc(N)ccc12 |
| 170 to 173 | NC(=O)C1(c2ccc(F)cc2)OC(=O)c2ccccc21 (stereo unspecified) |
| 125 to 127 | Cn1cc(C2=C(c3cn(CCCSc4ncccn4)c4ccccc34)C(=O)NC2=O)c2ccccc21 |
| 168 to 171 | CCOC(=O)c1ncn(-c2nncs2)c1S(N)(=O)=O |
| 295 to 300 | CCOC(=O)c1cnc2cc(NC(C)=O)ccc2c1O |
| 89 to 91 | Cc1ccc(S(=O)(=O)OCc2cc([N+](=O)[O-])ccc2F)cc1 |
| 150 | COc1ccc2c(c1)Sc1c(ccc(OC)c1C=O)N2C |
| 69.5 to 70 | CCCc1cc([N+](=O)[O-])cc(C=O)c1O |
| 205 to 207 | O=C1NC(=O)c2cc(Nc3ccccc3)c(Nc3ccccc3)cc21 |
| 206 to 208 | CC(C(=O)N1c2ccccc2C(=O)N(C)c2cccnc21)N1CCN(C)CC1 (stereo unspecified) |
| 260 to 262 | O=C1CCC(N2Cc3cc(CNC(=O)c4ccc(Cl)c(Cl)c4)ccc3C2=O)C(=O)N1 (stereo unspecified) |
| 118 to 120 | COC(=N)Nc1nc(Cl)cc(OC)n1 |
| 193 to 195 | COc1nc(=O)n(-c2ccc(Cl)cc2C)c(=O)[nH]1 |
| 112 to 114 | COc1cccc(CN[C@H](C)c2ccc([N+](=O)[O-])cc2)c1O |
| 192 | Cc1noc(C)c1-c1ccc(F)cc1OC1SCC(O)C(O)C1O (stereo unspecified) |
| 164 to 166 | COc1nc(Cl)nc(NC(C#N)C#N)n1 |
| 235 to 237 | Cn1c([N+](=O)[O-])cnc1-c1nnc2cccnn12 |
| 369 | Cc1ccc(-n2nc3c4cc(Br)ccc4[nH]c(=O)n3c2=O)cc1 |
| 119 to 122 | CCOC(=O)/C=C/c1cc(OC)cc(OC)c1C#N |
| 149 to 150 | N#CCCn1nc(O)nc1Cl |

| SMILES | melting point [°C] |
| --- | --- |
| N#Cc1c(F)cc(OCCOc2ccc3ccccc3c2)cc1F | 148 to 149 |
| Cc1cc(C2=CCN(CCCC(O)c3ccccc3)CC2)on1 (stereo unspecified) | 108 to 109 |
| CN(SN(CC#N)CC#N)C(=O)Oc1cccc2c1OC(C)(C)C2 | 94 to 95 |
| COC(=N)NC(=O)CCl | 123 |
